The values that follow come from patent US9187411B2, “Leukotriene B4 antagonist compound” (Eli Lilly and Company, priority 2012, dated 2015).

The target of the test is T1, high-affinity (BLT1) LTB4 receptor (Homo sapiens, UniProt Q15722).
T1 construct: expressed in transfected cells
Nature of the test: FLIPR calcium release assay (LTB4-induced calcium mobilization). In kind it is cell-based. To be noted: CHO-K1 cells expressing BLT1, 8 nM LTB4, n of 2. As to the method:
hBLT1/CHO-K1 Stable Xcell Line Preparations: Human BLT1 receptor DNA (National Center for Biotechnology Information (NCBI), Reference Sequence NM_181657) is synthesized and cloned into expression vector pcDNA3.1/Hygro(+) (Invitrogen V87020). The cDNA expression vector construct is transfected into Chinese hamster ovary (CHO-K1) cells (American Type Culture Collection (ATCC) CCL-61) using Lipofectamine 2000 (Invitrogen) as transfection reagent. Cells are cultured in selective Dulbecco's Modified Eagle Medium (DMEM) containing 200 μg/mL Hygromycin, 24 hours post transfection. Single clones are isolated and screened for BLT1 expression and function using Western Blot analysis and Fluorometric Imaging Plate Reader (FLIPR®) calcium release assay.
Chinese hamster ovary (CHO-K1) cells stably expressing the high-affinity (BLT1) LTB4 receptor are seeded at 10,000 cells/well in a 96 well plate (Corning) in growth medium containing DMEM/F-12 (3:1) w/o phenol red (Invitrogen), 5% fetal bovine serum (FBS) (Hyclone), 20 mM HEPES (Invitrogen), 200 μg/mL Hygromycin B (Invitrogen) and 40 μg/mL L-Proline (Sigma). The plate is incubated for 22-24 h at 37° C. 5% CO2 then growth medium is replaced with 50 μL/well of test medium containing Roswell Park Memorial Institute (RPMI) RPMI-1640 w/o phenol red, 20 mM HEPES (both from Invitrogen), and 0.2% w/v Bovine Serum Albumin (Sigma). […]
A general note: Calcium assays in cells follow changes in intracellular calcium, usually with a dye or a luminescent sensor.

T1 sequence (Q15722 whole entry): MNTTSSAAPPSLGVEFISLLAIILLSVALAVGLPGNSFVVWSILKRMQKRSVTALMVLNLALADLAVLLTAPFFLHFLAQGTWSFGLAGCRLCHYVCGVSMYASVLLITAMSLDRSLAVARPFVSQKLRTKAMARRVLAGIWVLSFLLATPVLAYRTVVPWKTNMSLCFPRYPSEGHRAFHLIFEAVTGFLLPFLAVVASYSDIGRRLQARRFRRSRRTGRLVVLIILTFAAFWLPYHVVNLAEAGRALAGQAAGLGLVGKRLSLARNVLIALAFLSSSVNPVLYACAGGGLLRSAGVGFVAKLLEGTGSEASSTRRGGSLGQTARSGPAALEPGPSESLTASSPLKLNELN

The IC50 is the concentration that gives 50% inhibition. As for `CCCc1c(NC(=O)CC(C)(C)C(=O)[O-])cccc1OCCCOc1cc(O)c(-c2ccc(F)cc2)cc1CC.[Na+]` [Example 2, Sodium 4-[[3-[3-[2-ethyl-4-(4-fluorophenyl)-5-hydroxy-phenoxy]propoxy]-2-propyl-phenyl]amino]-2,2-dimethyl-4-oxo-butanoate], under “read-out: inhibition of LTB4-induced calcium mobilization Kb”, the Kb is 0.98 nM. Also, the IC50 (read-out: inhibition of LTB4-induced calcium mobilization relative IC50) amounted to 6.48 nM.
